Each compound was assayed against T1, Recombinant human renin (Homo sapiens, UniProt P00797) (assay: Inhibitory activity against human renin (fluorogenic peptide substrate)). Conditions: 50% inhibitory concentration (IC50) against human renin, 37° C. for 1 hour.
T1 sequence (P00797 67-406): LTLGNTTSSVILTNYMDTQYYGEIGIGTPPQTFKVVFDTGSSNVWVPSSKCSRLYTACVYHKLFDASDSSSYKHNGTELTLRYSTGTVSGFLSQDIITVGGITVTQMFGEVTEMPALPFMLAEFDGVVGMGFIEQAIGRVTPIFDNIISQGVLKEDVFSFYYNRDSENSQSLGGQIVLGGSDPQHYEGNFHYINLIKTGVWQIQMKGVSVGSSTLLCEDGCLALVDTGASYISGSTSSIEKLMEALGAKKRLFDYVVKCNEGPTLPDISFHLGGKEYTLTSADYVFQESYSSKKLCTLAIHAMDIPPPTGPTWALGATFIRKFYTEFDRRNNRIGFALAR
Assay type: biochemical

In order of falling IC50:
1. COC(=O)NCCCc1cc([C@@H](C)N(C(=O)[C@H]2CN[C@@H](C)CO2)C2CC2)cc(C2CC2)n1 [Example 352]  7.6 nM
2. COC[C@H]1CO[C@@H](C(=O)N(C2CC2)[C@@H](C)c2cnc(OC)c(CCCNC(=O)OC)c2)CN1 [Example 309]  7.1 nM
3. C[C@@H]1CNC[C@H](C(=O)N(C2CC2)[C@H](C)c2cc(Cc3ccccc3)c(-c3ccccc3-c3nnn[nH]3)s2)O1 [Example 296]  7 nM
4. COC(=O)NCCCn1nc([C@@H](C)N(C(=O)[C@H]2CN[C@H](CC(F)F)CO2)C2CC2)c2ccc(C)nc21 [Example 307]  6.6 nM
5. COC(=O)NCCCc1cc([C@H](C)N(C(=O)[C@H]2CNC[C@@H](CN(C)C)O2)C2CC2)cc(OC)n1 [Example 321]  5.6 nM
6. COC[C@H]1CO[C@@H](C(=O)N(C2CC2)[C@@H](C)c2nn(CCCNC(=O)OC)c(-c3ccccn3)c2C)CN1 [Example 338]  5.3 nM
7. COC(=O)NCCCc1nc(C(C)N(C(=O)[C@H]2CNCCO2)C2CC2)c(C)n1-c1ccccc1 (stereo partly drawn) [Example 343]  5.3 nM
8. COC(=O)NC/C=C/c1cc([C@@H](C)N(C(=O)[C@H]2CNC[C@@H](C)O2)C2CC2)nn1-c1ccc(C(F)(F)F)cc1 [Example 356]  5.1 nM
9. COC(=O)NCCCc1nc(OC)cc([C@@H](C)N(C(=O)[C@H]2CNCCO2)C2CC2)n1 [Example 298]  3.5 nM
10. COC(=O)NCCCn1cc([C@@H](C)N(C(=O)[C@H]2CNCCO2)C2CC2)nc1C(F)(F)F [Example 319]  3.5 nM
11. COC(=O)NC/C=C/c1cc([C@@H](C)N(C(=O)[C@H]2CNCCO2)C2CC2)nn1-c1ccccc1 [Example 357]  3.5 nM
12. COC[C@@H]1CNC[C@H](C(=O)N(C2CC2)[C@H](C)c2cn(CCCNC(=O)OC)c(C(F)(F)F)n2)O1 [Example 320]  3.2 nM
13. COC[C@H]1CO[C@@H](C(=O)N(C2CC2)[C@@H](C)c2nn(CCCNC(=O)OC)c(C3CCOCC3)c2C)CN1 [Example 327]  2.9 nM
14. COC[C@H]1CO[C@@H](C(=O)N(C2CC2)[C@H](C)c2cc(CCCNC(=O)OC)n(C(C)C)n2)CN1 [Example 300]  2.8 nM
15. COC(=O)NCCCn1cc([C@H](C)N(C(=O)[C@H]2CNCCO2)C2CC2)nc1Oc1ccccc1 [Example 313]  2.5 nM
16. COC[C@H]1CO[C@@H](C(=O)N(C2CC2)[C@@H](C)c2cc(OC(C)C)n(CCCNC(=O)OC)n2)CN1 [Example 331]  2.3 nM
17. COC[C@H]1CO[C@@H](C(=O)N(C2CC2)[C@@H](C)c2cc(C3CCOCC3)n(CCCNC(=O)OC)n2)CN1 [Example 323]  2 nM
18. COC(=O)NCCCc1cc(C(C)N(C(=O)[C@H]2CNC[C@@H](C)O2)C2CC2)nn1-c1ccccc1C(F)(F)F (stereo partly drawn) [Example 350]  1.9 nM
19. COC[C@H]1CO[C@@H](C(=O)N(C2CC2)[C@H](C)c2cc(CCCNC(=O)OC)n(C3CCOCC3)n2)CN1 [Example 302]  1.6 nM
20. COC(=O)NCCCc1cc([C@@H](C)N(C(=O)[C@H]2CN[C@@H](CC(F)F)CO2)C2CC2)cc(OC)n1 [Example 306]  1.6 nM
21. CC[C@H]1CO[C@@H](C(=O)N(C2CC2)[C@@H](C)c2cn(CCCNC(=O)OC)c(OC(C)C)n2)CN1 [Example 336]  1.6 nM
22. COC[C@H]1CO[C@@H](C(=O)N(C2CC2)[C@H](C)c2cn(CCCNC(=O)OC)c3ncccc23)CN1 [Example 295]  1.5 nM
23. COC[C@H]1CO[C@@H](C(=O)N(C2CC2)[C@@H](C)c2cn(CCCNC(=O)OC)c(C3CCOCC3)n2)CN1 [Example 322]  1.5 nM
24. COC(=O)NCCCc1cc([C@H](C)N(C(=O)[C@H]2CNC[C@@H](CC#N)O2)C2CC2)cc(OC)n1 [Example 316]  1.4 nM
25. COC(=O)NCCCc1cc([C@@H](C)N(C(=O)[C@H]2CNC[C@@H](C)O2)C2CC2)nn1-c1ccc(C(F)(F)F)cc1 [Example 354]  1.4 nM
26. COC(=O)NCCCn1cc([C@H](C)N(C(=O)[C@H]2CN[C@@H](CC(F)F)CO2)C2CC2)nc1C1CCOCC1 [Example 318]  1.3 nM
27. COC(=O)NC/C=C/c1cc([C@@H](C)N(C(=O)[C@H]2CNC[C@@H](C)O2)C2CC2)nn1-c1cccc(Cl)c1 [Example 346]  1.3 nM
28. COC(=O)NCCCn1nc([C@@H](C)N(C(=O)[C@H]2CN[C@@H](CC(F)F)CO2)C2CC2)c2ccc(C)nc21 [Example 305]  1.2 nM
29. COC[C@@H]1CNC[C@H](C(=O)N(C2CC2)[C@@H](C)c2nn(CCCNC(=O)OC)c(-c3ccccn3)c2C)O1 [Example 337]  1.2 nM
30. COC[C@H]1CO[C@@H](C(=O)N(C2CC2)[C@@H](C)c2nn(CCCNC(=O)OC)c(C3CCOCC3)c2F)CN1 [Example 328]  1.1 nM
31. COC(=O)NCCCc1cc([C@@H](C)N(C(=O)[C@H]2CNC[C@@H](C)O2)C2CC2)nn1-c1cccc(C(F)(F)F)c1 [Example 349]  1.1 nM
32. COC(=O)NCCCc1cc([C@H](C)N(C(=O)[C@H]2CNCCO2)C2CC2)cnc1C(C)C [Example 315]  1 nM
33. COC(=O)NCCCn1cc([C@@H](C)N(C(=O)[C@H]2CN[C@@H](COCc3ccccc3)CO2)C2CC2)nc1C1CCOCC1 [Example 299]  0.9 nM
34. COC(=O)NCCCn1cc([C@H](C)N(C(=O)[C@H]2CN[C@@H](C)CO2)C2CC2)nc1C1CCCCC1 [Example 335]  0.9 nM
35. COC[C@@H]1CNC[C@H](C(=O)N(C2CC2)[C@H](C)c2cc(CCCNC(=O)OC)n(C3CCOCC3)n2)O1 [Example 303]  0.8 nM
36. CCc1cc([C@H](C)N(C(=O)[C@H]2CNC[C@@H](COC)O2)C2CC2)cc(CCCNC(=O)OC)n1 [Example 329]  0.8 nM
37. COC(=O)NCCCc1cc([C@@H](C)N(C(=O)[C@H]2CN[C@@H](C)CO2)C2CC2)nn1-c1ccccc1 [Example 355]  0.8 nM
38. COCCCCc1cc([C@@H](C)N(C(=O)[C@H]2CNC[C@@H](COC)O2)C2CC2)cc(OC)n1 [Example 304]  0.7 nM
39. CCOC[C@@H]1CNC[C@H](C(=O)N(C2CC2)[C@@H](C)c2nn(CCCNC(=O)OC)c3nc(C)ccc23)O1 [Example 312]  0.7 nM
40. COC(=O)NCCCc1cc([C@@H](C)N(C(=O)[C@H]2CNCCO2)C2CC2)cc(C(F)(F)F)n1 [Example 325]  0.7 nM
41. COC(=O)NCCCc1cc([C@H](C)N(C(=O)[C@H]2CNC[C@@H](CF)O2)C2CC2)nn1C1CCOCC1 [Example 340]  0.7 nM
42. COC(=O)NCCCc1cc([C@@H](C)N(C(=O)[C@H]2CNC[C@@H](C)O2)C2CC2)nn1-c1cccc(F)c1F [Example 347]  0.7 nM
43. COC(=O)NCCCc1cc([C@@H](C)N(C(=O)[C@H]2CNCCO2)C2CC2)nn1-c1cccc(C(F)(F)F)c1 [Example 348]  0.7 nM
44. COC[C@@H]1CNC[C@H](C(=O)N(C2CC2)[C@H](C)c2cc(CCCNC(=O)OC)n(C(C)C)n2)O1 [Example 301]  0.6 nM
45. COC(=O)NCCCc1cc([C@H](C)N(C(=O)[C@H]2CNCCO2)C2CC2)cnc1C1CCOCC1 [Example 317]  0.6 nM
46. COC[C@@H]1CNC[C@H](C(=O)N(C2CC2)[C@H](C)c2cc(CCCNC(=O)OC)nc(C(F)(F)F)c2)O1 [Example 324]  0.6 nM
47. COC(=O)NCCCc1cc([C@@H](C)N(C(=O)[C@H]2CNCCO2)C2CC2)sc1-c1ccccc1NS(=O)(=O)C(F)(F)F [Example 297]  0.5 nM
48. COC(=O)NCCCc1cc([C@H](C)N(C(=O)[C@H]2CNC[C@@H](CO)O2)C2CC2)cc(OC)n1 [Example 308]  0.5 nM
49. COC(=O)NCCCc1cc([C@H](C)N(C(=O)[C@H]2CNC[C@@H](CF)O2)C2CC2)cc(OC)n1 [Example 314]  0.5 nM
50. COC[C@@H]1CNC[C@H](C(=O)N(C2CC2)[C@@H](C)c2cnc(OC)c(CCCNC(=O)OC)c2)O1 [Example 310]  0.4 nM
51. CCOC[C@@H]1CNC[C@H](C(=O)N(C2CC2)[C@@H](C)c2cc(CCCNC(=O)OC)nc(OC)c2)O1 [Example 311]  0.4 nM
52. COC(=O)NCCCn1nc([C@H](C)N(C(=O)[C@H]2CNCCO2)C2CC2)cc1OC(C)C [Example 326]  0.4 nM
53. COC(=O)NCCCn1nc([C@@H](C)N(C(=O)[C@H]2CN[C@@H](CCF)CO2)C2CC2)c2ccc(C)nc21 [Example 332]  0.4 nM
54. COC(=O)NCCCn1cc([C@H](C)N(C(=O)[C@H]2CNC[C@@H](COCc3ccccc3)O2)C2CC2)nc1C1CCOCC1 [Example 339]  0.4 nM
55. COC(=O)NCCCc1cc([C@@H](C)N(C(=O)[C@H]2CNC[C@@H](C)O2)C2CC2)cc(C2CC2)n1 [Example 342]  0.4 nM
56. COC(=O)NCCCc1cc([C@@H](C)N(C(=O)[C@H]2CNC[C@@H](C)O2)C2CC2)nn1-c1cccc(C)c1 [Example 344]  0.4 nM
57. COC(=O)NCCCc1cc([C@@H](C)N(C(=O)[C@H]2CNC[C@@H](C)O2)C2CC2)nn1-c1ccccc1C [Example 345]  0.4 nM
58. COC(=O)NCCCc1cc([C@@H](C)N(C(=O)[C@H]2CNC[C@@H](C)O2)C2CC2)nn1-c1ccc(F)cc1 [Example 351]  0.4 nM
59. COC(=O)NCCCn1cc([C@@H](C)N(C(=O)[C@H]2CN[C@@H](C)CO2)C2CC2)nc1-c1ccccc1 [Example 353]  0.4 nM
60. COC[C@@H]1CNC[C@H](C(=O)N(C2CC2)[C@@H](C)c2nn(CCCNC(=O)OC)c(C3CCOCC3)c2F)O1 [Example 330]  0.3 nM
61. COC(=O)NCCCn1cc([C@H](C)N(C(=O)[C@H]2CNC[C@@H](C)O2)C2CC2)nc1C1CCCCC1 [Example 333]  0.3 nM
62. COC(=O)NCCCc1cc([C@H](C)N(C(=O)[C@H]2CNC[C@@H](COc3ccccc3)O2)C2CC2)nn1C1CCOCC1 [Example 334]  0.3 nM
63. COC(=O)NCCCn1cc([C@H](C)N(C(=O)[C@H]2CN[C@@H](CCF)CO2)C2CC2)nc1OC(C)C [Example 341]  0.3 nM

Source: patent US9556159B2, “Renin inhibitor” (MITSUBISHI TANABE PHARMA CORPORATION, priority 2012, dated 2017)
